From PubChem BioAssay AID1919013 (Molecular Pharmacology Branch, DTP, NCI, 2023)
One block for each molecule: values may come before it.

Tested on: LG0703-F498-PDC complex spheroid growth
Experiment: Anticancer human tumor LG0703-F498-PDC patient-derived lung adenocarcinoma cell line growth inhibition [AhR]
Conditions: for IC50: curve of first compound; for viability, T/C: stronger effect = lower value
In short: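 Spheroids combined tumor cells with HUVEC endothelial cells and human MSCs as stroma. AhR antagonists were paired with standard or investigational drugs, each dosed in half-log steps down from near clinical Cmax, or from 10 microM where Cmax was unknown.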

[1] = second compound 0.1 µM, first compound 0.0316 µM
[2] = second compound 0.1 µM, first compound 0.1 µM
[3] = second compound 0.1 µM, first compound 0.316 µM
[4] = second compound 0.1 µM, first compound 1 µM
[5] = second compound 0.1 µM, first compound 3.16 µM
[6] = second compound 0.1 µM, first compound 10 µM
[7] = second compound 0.316 µM, first compound 0.0316 µM
[8] = second compound 0.316 µM, first compound 0.1 µM
[9] = second compound 0.316 µM, first compound 0.316 µM
[10] = second compound 0.316 µM, first compound 1 µM
[11] = second compound 0.316 µM, first compound 3.16 µM
[12] = second compound 0.316 µM, first compound 10 µM
[13] = second compound 1 µM, first compound 0.0316 µM
[14] = second compound 1 µM, first compound 0.1 µM
[15] = second compound 1 µM, first compound 0.316 µM
[16] = second compound 1 µM, first compound 1 µM
[17] = second compound 1 µM, first compound 3.16 µM
[18] = second compound 1 µM, first compound 10 µM
[19] = second compound 3.16 µM, first compound 0.0316 µM
[20] = second compound 3.16 µM, first compound 0.1 µM
[21] = second compound 3.16 µM, first compound 0.316 µM
[22] = second compound 3.16 µM, first compound 1 µM
[23] = second compound 3.16 µM, first compound 3.16 µM
[24] = second compound 3.16 µM, first compound 10 µM
[25] = second compound 10 µM, first compound 0.0316 µM
[26] = second compound 10 µM, first compound 0.1 µM
[27] = second compound 10 µM, first compound 0.316 µM
[28] = second compound 10 µM, first compound 1 µM
[29] = second compound 10 µM, first compound 3.16 µM
[30] = second compound 10 µM, first compound 10 µM
[31] = second compound 0.1 µM, first compound 0.000949 µM
[32] = second compound 0.1 µM, first compound 0.003 µM
[33] = second compound 0.1 µM, first compound 0.00949 µM
[34] = second compound 0.1 µM, first compound 0.03 µM
[35] = second compound 0.1 µM, first compound 0.0949 µM
[36] = second compound 0.1 µM, first compound 0.3 µM
[37] = second compound 0.316 µM, first compound 0.000949 µM
[38] = second compound 0.316 µM, first compound 0.003 µM
[39] = second compound 0.316 µM, first compound 0.00949 µM
[40] = second compound 0.316 µM, first compound 0.03 µM
[41] = second compound 0.316 µM, first compound 0.0949 µM
[42] = second compound 0.316 µM, first compound 0.3 µM
[43] = second compound 1 µM, first compound 0.000949 µM
[44] = second compound 1 µM, first compound 0.003 µM
[45] = second compound 1 µM, first compound 0.00949 µM
[46] = second compound 1 µM, first compound 0.03 µM
[47] = second compound 1 µM, first compound 0.0949 µM
[48] = second compound 1 µM, first compound 0.3 µM
[49] = second compound 3.16 µM, first compound 0.000949 µM
[50] = second compound 3.16 µM, first compound 0.003 µM
[51] = second compound 3.16 µM, first compound 0.00949 µM
[52] = second compound 3.16 µM, first compound 0.03 µM
[53] = second compound 3.16 µM, first compound 0.0949 µM
[54] = second compound 3.16 µM, first compound 0.3 µM
[55] = second compound 10 µM, first compound 0.000949 µM
[56] = second compound 10 µM, first compound 0.003 µM
[57] = second compound 10 µM, first compound 0.00949 µM
[58] = second compound 10 µM, first compound 0.03 µM
[59] = second compound 10 µM, first compound 0.0949 µM
[60] = second compound 10 µM, first compound 0.3 µM
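Further: luminescence taken as a proxy for viable cell amount.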
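Wherever viability, T/C is given: percent of DMSO vehicle control where 100% means growth equal to vehicle.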

Structure (SMILES): COc1ccc([C@@H](O)c2cc(-c3ncnc4cc(N5CCOCC5)ccc34)c(F)cc2Cl)nn1 + Cc1ccccc1N=Nc1ccc(NC(=O)c2ccnn2C)c(C)c1
IC50 (second compound 0.1 µM): 4.59 µM
IC50 (second compound 0.316 µM): 2.87 µM
IC50 (second compound 1 µM): 3.92 µM
IC50 (second compound 3.16 µM): 2.55 µM
IC50 (second compound 10 µM): 1.9 µM
viability, T/C [1]: 93.9%
viability, T/C [2]: 93.8%
viability, T/C [3]: 88.3%
viability, T/C [4]: 75.7%
viability, T/C [5]: 61.2%
viability, T/C [6]: 29%
viability, T/C [7]: 83.3%
viability, T/C [8]: 101%
viability, T/C [9]: 91.1%
viability, T/C [10]: 75%
viability, T/C [11]: 48.5%
viability, T/C [12]: 28.1%
viability, T/C [13]: 87.3%
viability, T/C [14]: 99.2%
viability, T/C [15]: 86%
viability, T/C [16]: 79%
viability, T/C [17]: 55%
viability, T/C [18]: 28.5%
viability, T/C [19]: 89.8%
viability, T/C [20]: 83.9%
viability, T/C [21]: 78%
viability, T/C [22]: 68.1%
viability, T/C [23]: 45.2%
viability, T/C [24]: 23.8%
viability, T/C [25]: 75.5%
viability, T/C [26]: 93.6%
viability, T/C [27]: 80.8%
viability, T/C [28]: 57.9%
viability, T/C [29]: 42.5%
viability, T/C [30]: 15.6%

Structure (SMILES): Nc1ncn(C2CC(O)C(CO)S2)c(=O)n1 (stereo not given) + Cc1cncc(-c2nc(NCCc3c[nH]c4ccccc34)c3ncn(C(C)C)c3n2)c1
IC50 (second compound 0.1 µM): > 0.3 µM
IC50 (second compound 0.316 µM): > 0.3 µM
IC50 (second compound 1 µM): > 0.3 µM
IC50 (second compound 3.16 µM): < 0.000949 µM
IC50 (second compound 10 µM): < 0.000949 µM
viability, T/C [31]: 107%
viability, T/C [32]: 109%
viability, T/C [33]: 91.9%
viability, T/C [34]: 98.4%
viability, T/C [35]: 104%
viability, T/C [36]: 105%
viability, T/C [37]: 117%
viability, T/C [38]: 107%
viability, T/C [39]: 108%
viability, T/C [40]: 115%
viability, T/C [41]: 109%
viability, T/C [42]: 99.1%
viability, T/C [43]: 87.3%
viability, T/C [44]: 89.1%
viability, T/C [45]: 78.2%
viability, T/C [46]: 86.3%
viability, T/C [47]: 94.4%
viability, T/C [48]: 103%
viability, T/C [49]: 3.25%
viability, T/C [50]: 3.89%
viability, T/C [51]: 4.63%
viability, T/C [52]: 5.24%
viability, T/C [53]: 2.89%
viability, T/C [54]: 4.14%
viability, T/C [55]: 1.24%
viability, T/C [56]: 0.8%
viability, T/C [57]: 1.81%
viability, T/C [58]: 1.01%
viability, T/C [59]: 1.6%
viability, T/C [60]: 1.59%

Structure (SMILES): O=C(c1cc(Cc2n[nH]c(=O)c3ccccc23)ccc1F)N1CCN(C(=O)C2CC2)CC1 + CC(CO)NC(=O)c1cc(-c2ccc(Cl)cc2)nn(-c2cnn(C)c2)c1=O
IC50 (second compound 0.1 µM): > 10 µM
IC50 (second compound 0.316 µM): > 10 µM
IC50 (second compound 1 µM): > 10 µM
IC50 (second compound 3.16 µM): > 10 µM
IC50 (second compound 10 µM): > 10 µM
viability, T/C [1]: 95.2%
viability, T/C [2]: 99.8%
viability, T/C [3]: 94.8%
viability, T/C [4]: 86.6%
viability, T/C [5]: 95.3%
viability, T/C [6]: 70.4%
viability, T/C [7]: 96.2%
viability, T/C [8]: 98.4%
viability, T/C [9]: 87.5%
viability, T/C [10]: 82.4%
viability, T/C [11]: 88.8%
viability, T/C [12]: 83.1%
viability, T/C [13]: 93%
viability, T/C [14]: 108%
viability, T/C [15]: 95.7%
viability, T/C [16]: 74.4%
viability, T/C [17]: 86.1%
viability, T/C [18]: 81%
viability, T/C [19]: 89.3%
viability, T/C [20]: 91%
viability, T/C [21]: 94.5%
viability, T/C [22]: 74.1%
viability, T/C [23]: 79%
viability, T/C [24]: 72%
viability, T/C [25]: 77.4%
viability, T/C [26]: 78.6%
viability, T/C [27]: 82.7%
viability, T/C [28]: 80%
viability, T/C [29]: 81.8%
viability, T/C [30]: 79.8%

Now those with a lower IC50 (second compound 0.1 µM), led by results:

IC50 (second compound 0.1 µM): 0.0153 µM
IC50 (second compound 0.316 µM): 0.0111 µM
IC50 (second compound 1 µM): 0.0119 µM
IC50 (second compound 3.16 µM): < 0.000949 µM
IC50 (second compound 10 µM): < 0.000949 µM
Structure (SMILES): CCc1c2c(nc3ccc(O)cc13)-c1cc3c(c(=O)n1C2)COC(=O)[C@]3(O)CC + Cc1cncc(-c2nc(NCCc3c[nH]c4ccccc34)c3ncn(C(C)C)c3n2)c1
viability, T/C [31]: 102%
viability, T/C [32]: 82.4%
viability, T/C [33]: 55.5%
viability, T/C [34]: 39.3%
viability, T/C [35]: 29.1%
viability, T/C [36]: 19.2%
viability, T/C [37]: 92.1%
viability, T/C [38]: 72.4%
viability, T/C [39]: 51.2%
viability, T/C [40]: 37.1%
viability, T/C [41]: 25.2%
viability, T/C [42]: 18.3%
viability, T/C [43]: 80.5%
viability, T/C [44]: 76.5%
viability, T/C [45]: 49.7%
viability, T/C [46]: 35.7%
viability, T/C [47]: 22.1%
viability, T/C [48]: 13.6%
viability, T/C [49]: 44.5%
viability, T/C [50]: 37.7%
viability, T/C [51]: 33%
viability, T/C [52]: 29.1%
viability, T/C [53]: 16.3%
viability, T/C [54]: 11.9%
viability, T/C [55]: 1.16%
viability, T/C [56]: 1.16%
viability, T/C [57]: 2.25%
viability, T/C [58]: 1.82%
viability, T/C [59]: 1.25%
viability, T/C [60]: 1.61%

IC50 (second compound 0.1 µM): 0.00238 µM
IC50 (second compound 0.316 µM): 0.00252 µM
IC50 (second compound 1 µM): 0.00212 µM
IC50 (second compound 3.16 µM): 0.00209 µM
IC50 (second compound 10 µM): 0.00188 µM
Structure (SMILES): CC(C)CC(NC(=O)C(Cc1ccccc1)NC(=O)c1cnccn1)B(O)O (stereo not given) + CC(CO)NC(=O)c1cc(-c2ccc(Cl)cc2)nn(-c2cnn(C)c2)c1=O
viability, T/C [31]: 76.8%
viability, T/C [32]: 43.2%
viability, T/C [33]: 1.95%
viability, T/C [34]: 0.49%
viability, T/C [35]: 0.12%
viability, T/C [36]: 0.2%
viability, T/C [37]: 80%
viability, T/C [38]: 44.7%
viability, T/C [39]: 3.04%
viability, T/C [40]: 0.34%
viability, T/C [41]: 0.17%
viability, T/C [42]: 0.17%
viability, T/C [43]: 75.9%
viability, T/C [44]: 38.8%
viability, T/C [45]: 2.08%
viability, T/C [46]: 0.36%
viability, T/C [47]: 1.04%
viability, T/C [48]: 0.16%
viability, T/C [49]: 78%
viability, T/C [50]: 37.3%
viability, T/C [51]: 1.6%
viability, T/C [52]: 0.13%
viability, T/C [53]: 0.63%
viability, T/C [54]: 1.52%
viability, T/C [55]: 71.2%
viability, T/C [56]: 35.5%
viability, T/C [57]: 1.37%
viability, T/C [58]: 0.23%
viability, T/C [59]: 0.25%
viability, T/C [60]: 0.21%
